# Assay results published in PubChem BioAssay AID504481 (NMMLSC, 2011).
# Active and inactive are the calls of the source.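 How the source made its calls: active means fold change below 0.65 in a panel strain, matching the primary screen cutoff; inactive means the rest.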
# Legend:
# Experiment in all cases: GFP reporter expression in transducer deletion yeast, mechanism study for yeast TOR pathway modulator project, S. cerevisiae, transducer mutant strains, GFP-tagged proteins (AID 504481);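 further: 1 = DMSO wells as ratio of mean channel GFP fluorescence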
# Conditions in all cases: S. cerevisiae transducer mutants, GFP-fusion expression, flow cytometry, 3 h
# BY4741 = test system: BY4741
# YNL142W = test system: YNL142W
# YBR084C-A = test system: YBR084C-A
# YCL025C = test system: YCL025C
# YCR005C = test system: YCR005C
# YKL103C = test system: YKL103C
Compound,fold change (BY4741),fold change (YNL142W),fold change (YBR084C-A),fold change (YCL025C),fold change (YCR005C),fold change (YKL103C)
O=[N+]([O-])c1cc(S(=O)(=O)C(F)(F)F)ccc1Sc1nc2ccccc2s1,1.03 (inactive),1.02 (inactive),1.03 (inactive),1.09 (inactive),1.09 (inactive),2.03
CC(=O)c1ccc(N2CCN(C(=O)c3ccc(Br)cc3)CC2)c(F)c1,1.31 (inactive),1.3 (inactive),1.27 (inactive),1.22 (inactive),1.72,1.69
O=C(Oc1c(Cl)cc(Cl)c2cccnc12)c1ccco1,1.03 (inactive),0.881 (inactive),1.14 (inactive),0.784 (inactive),1.2 (inactive),1.37 (inactive)
Cc1ccc(/C=C2/C(=O)ON=C2c2ccccc2)o1,1.42 (inactive),1.23 (inactive),0.942 (inactive),0.837 (inactive),1.47 (inactive),1.61
O=C(NC(=S)NNC(=O)c1cnccn1)c1ccc(F)cc1,1.1 (inactive),1.23 (inactive),0.875 (inactive),1.02 (inactive),0.816 (inactive),1.54
O=S(=O)(CCN(CCS(=O)(=O)C(F)(F)F)CC1CCCO1)C(F)(F)F (centres undefined),0.957 (inactive),0.965 (inactive),0.989 (inactive),0.948 (inactive),1.23 (inactive),1.89
O=[N+]([O-])c1cc(Cl)c2cccnc2c1O,0.935 (inactive),1.14 (inactive),1.05 (inactive),1.27 (inactive),0.922 (inactive),1.43 (inactive)
CCc1ccc(OCC(=O)NNC(=S)NC(=O)C2CC2)c(Br)c1,1.54 (inactive),1.15 (inactive),1.09 (inactive),1.03 (inactive),1.17 (inactive),2.4
CCCCC(=O)NNC(=S)NC(=O)c1ccc(C)cc1,1.66 (inactive),1.25 (inactive),1.27 (inactive),1.12 (inactive),1.02 (inactive),2.75
N/C(Cc1ccc(Cl)cc1)=N\OC(=O)c1cccc2ccccc12,1.27 (inactive),1.22 (inactive),0.913 (inactive),0.919 (inactive),2.47,1.44 (inactive)
CC(C)(C)n1nc(-c2ccc(Cl)cc2)c2c(N)ncnc21,0.757 (inactive),0.924 (inactive),0.489,0.899 (inactive),0.358 (inactive),1.03 (inactive)
COc1ccc([N+](=O)[O-])c(S(=O)(=O)c2ccc(Cl)cc2)n1,1.1 (inactive),1.28 (inactive),0.841 (inactive),1.31 (inactive),0.893 (inactive),2.87
O=C(Oc1c(Cl)cc(Cl)c2cccnc12)c1cccc([N+](=O)[O-])c1,0.946 (inactive),1.08 (inactive),1.18 (inactive),1.16 (inactive),1.03 (inactive),1.56
O=[N+]([O-])c1ccc(S(=O)(=O)c2cccc(C(F)(F)F)c2)nc1,1.08 (inactive),1.26 (inactive),0.793 (inactive),0.901 (inactive),1.32 (inactive),1.49 (inactive)
CC(=O)SC(C[N+](=O)[O-])c1cn(C(C)=O)c2ccccc12 (centres undefined),1 (inactive),0.785 (inactive),1.08 (inactive),0.77 (inactive),0.93 (inactive),1.48 (inactive)
O=[N+]([O-])c1cc(O)c2ncccc2c1,0.838 (inactive),0.761 (inactive),0.972 (inactive),0.835 (inactive),0.721 (inactive),1.13 (inactive)
CSC1=NS(=O)(=O)c2c(C)nn(C)c2S1,0.902 (inactive),0.896 (inactive),0.857 (inactive),0.969 (inactive),0.841 (inactive),1.3 (inactive)

Compound,fold change (BY4741),fold change (YNL142W),fold change (YBR084C-A),fold change (YCL025C),fold change (YCR005C),fold change (YKL103C)
O=C(Oc1ccnc2cc(Cl)ccc12)N1CCCCCC1,0.878 (inactive),1.97,1.09 (inactive),1.78,0.6 (inactive),0.97 (inactive)
O=C(OCn1ncc(Br)c(Br)c1=O)c1ccc(F)cc1,0.946 (inactive),1.06 (inactive),1.02 (inactive),0.996 (inactive),1.68,1.76
Cc1ccc(S(=O)(=O)c2ccc([N+](=O)[O-])cn2)cc1,1.05 (inactive),1.36 (inactive),0.894 (inactive),1.17 (inactive),1.62,1.65
Cn1ncc(S(=O)(=O)Cc2ccccc2)c(Cl)c1=O,1.33 (inactive),1.47 (inactive),0.743 (inactive),1.13 (inactive),1.24 (inactive),1.83
c1ccc(-c2cccc(-c3ccccn3)n2)nc1,0.815 (inactive),0.833 (inactive),0.903 (inactive),0.958 (inactive),0.73 (inactive),1.41 (inactive)
CCSc1nnc(NC(=O)c2ccccn2)s1,0.946 (inactive),1.05 (inactive),0.968 (inactive),0.982 (inactive),0.897 (inactive),1.13 (inactive)
CCOC(=O)c1c(C)oc2c1c(C(c1cccnc1)N1CCOCC1)c(O)c1ccccc12 (centres undefined),1.18 (inactive),1.26 (inactive),0.759 (inactive),0.907 (inactive),1.27 (inactive),1.36 (inactive)
Cc1ccc(C2=NOC(=O)/C2=C\c2ccc(C)o2)cc1,1.8 (inactive),1.11 (inactive),0.943 (inactive),0.812 (inactive),1.25 (inactive),1.2 (inactive)
CC(Oc1ccc(Cl)cc1)C(=O)NNC(=S)NC(=O)c1ccco1 (centres undefined),1.49 (inactive),1.33 (inactive),1.09 (inactive),0.906 (inactive),1.21 (inactive),2.14
O=C1ON=C(c2ccccc2)/C1=C\c1ccco1,0.924 (inactive),1.13 (inactive),0.921 (inactive),1 (inactive),1.28 (inactive),1.95
CC(C)(C)C(=O)NC(=S)NNC(=O)c1ccc(-c2ccccc2)cc1,1.48 (inactive),1.46 (inactive),1.19 (inactive),1.32 (inactive),1.2 (inactive),2.06
Cc1cc(C(=O)Nc2nc(-c3ccccn3)cs2)ccc1[N+](=O)[O-],0.913 (inactive),0.965 (inactive),0.967 (inactive),0.981 (inactive),0.918 (inactive),1.01 (inactive)
COc1ccc(/C=C/C(=O)NC(=S)NNC(=O)c2cnccn2)cc1,1.19 (inactive),1.27 (inactive),0.936 (inactive),1.01 (inactive),1.05 (inactive),1.51
COc1ccc(C(=O)NNC(=S)NC(=O)/C=C/c2cccs2)cc1,1.03 (inactive),1.13 (inactive),1.23 (inactive),1.38 (inactive),1.07 (inactive),1.51
CO[C@H]1C[C@@H]2CC[C@@H](C)[C@@](O)(O2)C(=O)C(=O)N2CCCC[C@H]2C(=O)O[C@H]([C@H](C)C[C@@H]2CC[C@@H](O)[C@H](OC)C2)CC(=O)[C@H](C)/C=C(\C)[C@@H](O)[C@@H](OC)C(=O)[C@H](C)C[C@H](C)/C=C/C=C/C=C/1C,1.12 (inactive),12.2,0.616,2.29,3.51,2.54
COc1ccc([N+](=O)[O-])c(S(=O)(=O)c2ccccc2)n1,0.935 (inactive),0.958 (inactive),0.944 (inactive),1.08 (inactive),0.91 (inactive),1.86
CN1CCN(C(c2ccc(C(F)(F)F)cc2)c2ccc3cccnc3c2O)CC1 (centres undefined),0.87 (inactive),0.91 (inactive),0.878 (inactive),0.972 (inactive),0.725 (inactive),1.35 (inactive)
